# Measurements taken from patent US20240238310A1, “MODULATION OF SEX STEROID HORMONE PRODUCTION AND ACTIVITY FOR TREATING AND PREVENTING HERNIAS” (Northwestern University, priority 2020, published 2024).
# Target: T1, ERα (Mus musculus, UniProt P19785)
# T1 construct: ERα in LAMT is almost exclusively expressed in fibroblasts; endogenous in cells; host or cells: primary LAMT fibrosis-associated fibroblasts (passage 0) from 4-week-old Arom^hum (FVB/N background) male mice
# T1 sequence (P19785 1-599): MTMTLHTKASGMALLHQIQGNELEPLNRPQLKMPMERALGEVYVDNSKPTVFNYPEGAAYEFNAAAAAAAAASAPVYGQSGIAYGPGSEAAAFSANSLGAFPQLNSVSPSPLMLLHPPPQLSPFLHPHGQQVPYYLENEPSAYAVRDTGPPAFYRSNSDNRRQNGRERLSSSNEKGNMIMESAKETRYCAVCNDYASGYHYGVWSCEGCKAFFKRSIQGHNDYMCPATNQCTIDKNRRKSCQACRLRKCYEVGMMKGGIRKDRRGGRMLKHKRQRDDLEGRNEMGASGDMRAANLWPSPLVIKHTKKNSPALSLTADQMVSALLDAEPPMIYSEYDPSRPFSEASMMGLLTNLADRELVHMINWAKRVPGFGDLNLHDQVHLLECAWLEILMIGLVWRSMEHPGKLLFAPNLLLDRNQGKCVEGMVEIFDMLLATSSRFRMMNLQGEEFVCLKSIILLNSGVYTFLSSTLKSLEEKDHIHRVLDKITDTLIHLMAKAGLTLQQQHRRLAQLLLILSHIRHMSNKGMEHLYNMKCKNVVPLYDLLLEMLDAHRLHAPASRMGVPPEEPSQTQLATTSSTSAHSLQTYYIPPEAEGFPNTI
# Experiment: ERα ChIP-seq, histone ChIP-seq and RNA-seq in LAMT FAFs treated with E2 or fulvestrant (planned)
# Assay type: cell-based
# Conditions: expected result (Aim 1); fulvestrant 10^−7 M, 24 h
# Excerpt: Early herniation in Arom^hum mice usually become visible around 4 weeks of age (FIG. 5). Thus, we will isolate LAMT transformed FAFs at 4 weeks of age. We routinely culture primary fibroblast cells from LAMT of both WT and Arom^hum mice (FIGS. 6-9). The quantity of FAFs (>10^7 cells/Arom^hum mouse) is sufficient for performing the proposed experiments. Previously, we successfully used two antibodies for ERα ChIP-seq or other genome-wide ChIP approaches^84, 85. We will perform optimization studies (ChIP-western and conventional ChIP) with both antibodies in primary muscle fibroblasts and use the most suitable antibody for ChIP-seq^84. […] Library quality will be assessed using the Agilent 2100 Bioanalyzer. Sequencing will be performed at the Next-Generation Sequencing Core at Northwestern to obtain 30 million single-end 75-bp reads per sample. […]
# Experiment 1b2: We will perform RNA-seq at 40 million reads per sample on the 12 LAMT FAF samples treated for 24 h with vehicle, E2 (10^−8M), or fulvestrant (10^-7 M) (n=4 mice/group). […] The RNA-seq data will be evaluated using pathway analysis and gene enrichment strategies with respect to the differentially expressed (DE) transcripts/genes induced by E2 and reversed by fulvestrant.
# Bioinformatics analysis for ChIP-seq, RNA-seq, and their integration. […] The differential binding (DB) sites will be detected using csaw^89. […]
structure (smiles),measurement,value
C[C@]12CC[C@@H]3c4ccc(O)cc4C[C@@H](CCCCCCCCC[S+]([O-])CCCC(F)(F)C(F)(F)F)[C@H]3[C@@H]1CC[C@@H]2O (stereo partly shown) [fulvestrant],"E2-induced ERα binding, histone modification and gene expression profiles in LAMT FAFs","will block or partially reverse E2-induced ERα binding and histone modification, and alter gene expression profiles"
